Results on 32 molecules are retold here after patent publication US9475816B2, “Substituted-1,4-dihydropyrazolo[4,3-b]indoles” (TAKEDA PHARMACEUTICAL COMPANY LIMITED, priority 2012, dated 2016).

The target in assay [1] is T1, human MetAP2 enzyme (Homo sapiens, UniProt P50579). The experiment in a line: MetAP2 enzyme assay, MetAP2 enzyme complexed with cobalt ions. The conditions noted are these: MetAP2 Co pIC50, 10 μM CoCl2; -log(IC50), IC50 molar.
Assay [2] addresses T1, human MetAP2 enzyme. The assay is described as follows: MetAP2 enzyme assay, MetAP2 enzyme complexed with manganese ions. The conditions noted are these: MetAP2 Mn pIC50, 10 μM MnCl2; -log(IC50), IC50 molar.
Protocol: DNA encoding the full-length sequence of human MetAP2 enzyme is amplified by PCR and cloned into a pFastBac expression vector (Invitrogen). Recombinant baculovirus incorporating the MetAP2 construct is generated by transposition using the Bac-to-Bac system (Invitrogen). The expression of recombinant protein is carried out by infection of Spodoptera frugiperda Sf9 cells (Invitrogen) in 5L Wave Bioreactors (Wave Biotech). Recombinant protein is isolated from cellular extracts by binding to an SP Hitrap Fast Flow or SP Sepharose (Sigma) column, and the protein is eluted using a NaCl gradient. Partially purified extracts of MetAP2 are further purified by an AKTA FPLC over a Superdex-200 column (GE). The purity of MetAP2 protein is determined on denaturing SDS-PAGE gel.
The results for each well are expressed as percent inhibition and calculated using the equation:

T1 sequence (P50579 whole entry): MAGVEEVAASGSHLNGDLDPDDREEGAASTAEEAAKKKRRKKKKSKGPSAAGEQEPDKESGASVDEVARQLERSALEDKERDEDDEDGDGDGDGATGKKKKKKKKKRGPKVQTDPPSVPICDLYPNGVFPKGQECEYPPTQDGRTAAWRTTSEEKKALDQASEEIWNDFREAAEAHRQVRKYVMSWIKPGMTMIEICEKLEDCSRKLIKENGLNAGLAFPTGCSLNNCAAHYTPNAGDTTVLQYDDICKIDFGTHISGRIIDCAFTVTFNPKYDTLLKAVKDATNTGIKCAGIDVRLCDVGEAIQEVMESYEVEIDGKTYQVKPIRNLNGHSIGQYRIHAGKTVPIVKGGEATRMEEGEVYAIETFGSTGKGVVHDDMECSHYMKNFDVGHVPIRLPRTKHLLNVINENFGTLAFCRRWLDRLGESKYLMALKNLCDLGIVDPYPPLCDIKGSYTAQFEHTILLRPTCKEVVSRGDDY

In the case of `Cc1nc(N2C[C@@H](O)[C@H](O)C2)ncc1-n1c2ccc(F)cc2c2[nH]ncc21` [Example 76, (3R,4R)-1-(5-(7-Fluoropyrazolo[4,3-b]indol-4(1H)-yl)-4-methylpyrimidin-2-yl)pyrrolidine-3,4-diol], the concentration for half-maximal inhibition (IC50) (commonly the point on the concentration scale where inhibition reaches its midpoint) is 10 nM in assay [1] and 6.31 nM in assay [2].
Consider `Cc1nc(N2CCO[C@@H](CO)C2)ncc1-n1c2ccc(F)cc2c2[nH]ncc21` [Example 77, ((2R)-4-(5-(7-Fluoropyrazolo[4,3-b]indol-4(1H)-yl)-4-methylpyrimidin-2-yl)morpholin-2-yl)methanol], for which the IC50 in assay [1] is 7.94 nM; in assay [2], 10 nM.
Turning to `Cc1nc(N2CCC(O)CC2)ncc1-n1c2ccc(F)cc2c2[nH]ncc21` [Example 78, 1-(5-(7-Fluoropyrazolo[4,3-b]indol-4(1H)-yl)-4-methylpyrimidin-2-yl)piperidin-4-ol], the half-inhibitory concentration (IC50) in assay [1] was 15.8 nM; in assay [2], 10 nM.
For `Cc1nc2c(cc1-n1c3ccc(F)cc3c3[nH]ncc31)ncn2C[C@H](O)CO` [Example 79, (2S)-3-(6-(7-Fluoropyrazolo[4,3-b]indol-4(1H)-yl)-5-methyl-3H-imidazo[4,5-b]pyridin-3-yl)propane-1,2-diol], in that order: 15.8 nM and 25.1 nM.
Consider `Cc1nc2c(cc1-n1c3ccc(F)cc3c3[nH]ncc31)ncn2CCCO` [Example 80, 3-(6-(7-Fluoropyrazolo[4,3-b]indol-4(1H)-yl)-5-methyl-3H-imidazo[4,5-b]pyridin-3-yl)propan-1-ol], for which the results for the IC50 in assay [1] and in assay [2] were 20 nM and 31.6 nM, respectively.
As to `Cc1nc2c(cc1-n1c3ccc(F)cc3c3[nH]ncc31)[nH]c(=O)n2CCCO` [Example 81, 6-(7-Fluoropyrazolo[4,3-b]indol-4(1H)-yl)-3-(3-hydroxypropyl)-5-methyl-1H-imidazo[4,5-b]pyridin-2(3H)-one], the IC50 is 5.01 nM in assay [1] and 6.31 nM in assay [2].
On to `Cc1nc2c(cc1-n1c3ccc(F)cc3c3[nH]ncc31)ncn2CCO` [Example 82, 2-(6-(7-Fluoropyrazolo[4,3-b]indol-4(1H)-yl)-5-methyl-3H-imidazo[4,5-b]pyridin-3-yl)ethanol], for which the results for the IC50 in assay [1] and in assay [2] were 7.94 nM and 10 nM, respectively.
`Cc1nc(N2CCO[C@H](CO)C2)ncc1-n1c2ccc(F)cc2c2[nH]ncc21` [Example 83, ((2S)-4-(5-(7-Fluoropyrazolo[4,3-b]indol-4(1H)-yl)-4-methylpyrimidin-2-yl)morpholin-2-yl)methanol]: the values for the IC50 in assay [1] and in assay [2] were 6.31 nM and 7.94 nM, respectively.
On to `O=c1[nH]c(N2CC[C@@H](O)C2)ncc1-n1c2ccc(F)cc2c2[nH]ncc21` [Example 84, (R)-5-(7-Fluoropyrazolo[4,3-b]indol-4(1H)-yl)-2-(3-hydroxypyrrolidin-1-yl)pyrimidin-4(3H)-one], for which the IC50 in assay [1] is 20 nM; in assay [2], 10 nM.
Take `Cc1nc(N)ncc1-n1c2ccc(F)cc2c2[nH]ncc21` [Example 85, 5-(7-Fluoropyrazolo[4,3-b]indol-4(1H)-yl)-4-methylpyrimidin-2-amine]: the IC50 in assay [1] is 15.8 nM; in assay [2], 12.6 nM.
For `Cc1nc(NC[C@@H](O)CO)ncc1-n1c2ccc(F)cc2c2[nH]ncc21` [Example 86, (2R)-3-((5-(7-Fluoropyrazolo[4,3-b]indol-4(1H)-yl)-4-methylpyrimidin-2-yl)amino)propane-1,2-diol], in that order: 7.94 nM and 12.6 nM.
For `Cc1nc2[nH]c(=O)[nH]c2cc1-n1c2ccc(F)cc2c2[nH]ncc21` [Example 87, 6-(7-Fluoropyrazolo[4,3-b]indol-4(1H)-yl)-5-methyl-1H-imidazo[4,5-b]pyridin-2(3H)-one], in that order: 7.94 nM and 10 nM.
For `Cn1nc(C(=O)NCCO)cc1-n1c2ccc(F)cc2c2[nH]ncc21` [Example 88, 5-(7-Fluoropyrazolo[4,3-b]indol-4(1H)-yl)-N-(2-hydroxyethyl)-1-methyl-1H-pyrazole-3-carboxamide], in that order: 25.1 nM and 10 nM.
Turning to `Cc1nc(N2CC(C(N)=O)C2)ncc1-n1c2ccc(F)cc2c2[nH]ncc21` [Example 89, 1-(5-(7-Fluoropyrazolo[4,3-b]indol-4(1H)-yl)-4-methylpyrimidin-2-yl)azetidine-3-carboxamide], the IC50 is 20 nM in assay [1] and 10 nM in assay [2].
For `Cc1nc2c(cc1-n1c3ccc(F)cc3c3[nH]ncc31)ncn2C[C@@H](O)CO` [Example 90, (2R)-3-(6-(7-Fluoropyrazolo[4,3-b]indol-4(1H)-yl)-5-methyl-3H-imidazo[4,5-b]pyridin-3-yl)propane-1,2-diol], in that order: 15.8 nM and 5.01 nM.
For `Cc1nc(N[C@@H](C)CO)ncc1-n1c2ccc(F)cc2c2[nH]ncc21` [Example 91, (2S)-2-((5-(7-Fluoropyrazolo[4,3-b]indol-4(1H)-yl)-4-methylpyrimidin-2-yl)amino)propan-1-ol], in that order: 6.31 nM and 12.6 nM.
As for `Cc1nc(NC[C@H](C)O)ncc1-n1c2ccc(F)cc2c2[nH]ncc21` [Example 92, (2S)-1-((5-(7-Fluoropyrazolo[4,3-b]indol-4(1H)-yl)-4-methylpyrimidin-2-yl)amino)propan-2-ol], the IC50 in assay [1] was 10 nM; in assay [2], 7.94 nM.
For `Cc1nc(NC[C@@H](C)O)ncc1-n1c2ccc(F)cc2c2[nH]ncc21` [Example 93, (2R)-1-((5-(7-Fluoropyrazolo[4,3-b]indol-4(1H)-yl)-4-methylpyrimidin-2-yl)amino)propan-2-ol], in that order: 7.94 nM and 6.31 nM.
`Cc1cc(C(=O)N2CC(O)C2)ncc1-n1c2ccc(F)cc2c2[nH]ncc21` [Example 94, (5-(7-Fluoropyrazolo[4,3-b]indol-4(1H)-yl)-4-methylpyridin-2-yl)(3-hydroxyazetidin-1-yl)methanone]: the IC50 was 10 nM in assay [1] and 7.94 nM in assay [2].
For `Cc1cc(C(=O)NCCO)ncc1-n1c2ccc(F)cc2c2[nH]ncc21` [Example 95, 5-(7-Fluoropyrazolo[4,3-b]indol-4(1H)-yl)-N-(2-hydroxyethyl)-4-methylpicolinamide], in that order: 31.6 nM and 20 nM.
For `Cc1nc(C(=O)NCCO)ccc1-n1c2ccc(F)cc2c2[nH]ncc21` [Example 96, 5-(7-Fluoropyrazolo[4,3-b]indol-4(1H)-yl)-N-(2-hydroxyethyl)-6-methylpicolinamide], in that order: 20 nM and 12.6 nM.
For `Cc1nc(C(=O)N2CC(O)C2)ccc1-n1c2ccc(F)cc2c2[nH]ncc21` [Example 97, (5-(7-Fluoropyrazolo[4,3-b]indol-4(1H)-yl)-6-methylpyridin-2-yl)(3-hydroxyazetidin-1-yl)methanone], in that order: 10 nM and 6.31 nM.
For `O=C(NCc1ccccc1)n1c2ccc(F)cc2c2[nH]ncc21` [Example 98, N-Benzyl-7-fluoropyrazolo[4,3-b]indole-4(1H)-carboxamide], the values for the IC50 in assay [1] and in assay [2] were 501 nM and 158 nM, respectively.
With `O=C(C1CC1)n1c2ccc(F)cc2c2[nH]ncc21` [Example 99, Cyclopropyl(7-fluoropyrazolo[4,3-b]indol-4(1H)-yl)methanone], the IC50 was 794 nM in assay [1] and 316 nM in assay [2].
For `Cc1nc(C(=O)NC2(CO)CC2)ccc1-n1c2ccc(F)cc2c2[nH]ncc21` [Example 100, 5-(7-Fluoropyrazolo[4,3-b]indol-4(1H)-yl)-N-(1-(hydroxymethyl)cyclopropyl)-6-methylpicolinamide], in that order: 12.6 nM and 12.6 nM.
For `Cc1nc(C(=O)NC2CC2)ccc1-n1c2ccc(F)cc2c2[nH]ncc21` [Example 101, N-Cyclopropyl-5-(7-fluoropyrazolo[4,3-b]indol-4(1H)-yl)-6-methylpicolinamide], in that order: 10 nM and 10 nM.
With `COCCNC(=O)c1ccc(-n2c3ccc(F)cc3c3[nH]ncc32)c(C)n1` [Example 102, 5-(7-Fluoropyrazolo[4,3-b]indol-4(1H)-yl)-N-(2-methoxyethyl)-6-methylpicolinamide], the values for the IC50 in assay [1] and in assay [2] were 31.6 nM and 39.8 nM, respectively.
For `Cc1nc(N2CC[C@H](C(=O)NCCO)C2)ncc1-n1c2ccc(F)cc2c2[nH]ncc21` [Example 103, (3S)-1-(5-(7-Fluoropyrazolo[4,3-b]indol-4(1H)-yl)-4-methylpyrimidin-2-yl)-N-(2-hydroxyethyl)pyrrolidine-3-carboxamide], in that order: 6.31 nM and 10 nM.
For `Cc1cc(C(=O)NC2(CO)CC2)ncc1-n1c2ccc(F)cc2c2[nH]ncc21` [Example 104, 5-(7-Fluoropyrazolo[4,3-b]indol-4(1H)-yl)-N-(1-(hydroxymethyl)cyclopropyl)-4-methylpicolinamide], in that order: 10 nM and 12.6 nM.
For `COCCNC(=O)c1cc(C)c(-n2c3ccc(F)cc3c3[nH]ncc32)cn1` [Example 105, 5-(7-Fluoropyrazolo[4,3-b]indol-4(1H)-yl)-N-(2-methoxyethyl)-4-methylpicolinamide], the 50% inhibitory concentration (IC50) was 50.1 nM in assay [1] and 63.1 nM in assay [2].
For `Cc1cc(C(=O)N2CCOCC2)ncc1-n1c2ccc(F)cc2c2[nH]ncc21` [Example 106, (5-(7-Fluoropyrazolo[4,3-b]indol-4(1H)-yl)-4-methylpyridin-2-yl)(morpholino)methanone], in that order: 100 nM and 100 nM.
For `Cc1cc(C(N)=O)ncc1-n1c2ccc(F)cc2c2[nH]ncc21` [Example 107, 5-(7-Fluoropyrazolo[4,3-b]indol-4(1H)-yl)-4-methylpicolinamide], in that order: 20 nM and 12.6 nM.
